From paper PMC2906706 (Cancer research, 2010) come the findings set out here.

One assay addresses OCT2 (Homo sapiens, UniProt O15244). Kind of assay: inhibition of ASP+ uptake in HEK293 cells over-expressing OCT2. The assay is classed as cell-based.
In another assay the target is T1, OCT1 (Homo sapiens, UniProt O15245).
T1 sequence (O15245 1-554): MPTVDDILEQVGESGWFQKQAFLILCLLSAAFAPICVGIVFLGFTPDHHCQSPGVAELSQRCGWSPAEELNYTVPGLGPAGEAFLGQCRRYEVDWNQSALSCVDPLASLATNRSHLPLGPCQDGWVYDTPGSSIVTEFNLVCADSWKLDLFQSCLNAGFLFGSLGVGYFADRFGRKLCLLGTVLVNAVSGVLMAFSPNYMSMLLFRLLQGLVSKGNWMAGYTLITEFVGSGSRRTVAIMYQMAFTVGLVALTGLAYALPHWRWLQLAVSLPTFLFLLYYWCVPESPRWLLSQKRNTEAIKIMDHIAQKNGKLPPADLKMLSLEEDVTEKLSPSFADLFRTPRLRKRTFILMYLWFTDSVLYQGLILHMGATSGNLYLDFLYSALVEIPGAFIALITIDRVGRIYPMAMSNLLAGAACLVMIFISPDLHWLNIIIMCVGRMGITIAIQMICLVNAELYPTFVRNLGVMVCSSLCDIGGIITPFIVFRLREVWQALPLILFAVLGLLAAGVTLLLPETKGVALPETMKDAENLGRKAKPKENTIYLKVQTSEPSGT
The assay can be described thus: inhibition of ASP+ uptake in HEK293 cells over-expressing OCT1. The assay is classed as cell-based.

Chain of OCT2 (O15244 whole entry): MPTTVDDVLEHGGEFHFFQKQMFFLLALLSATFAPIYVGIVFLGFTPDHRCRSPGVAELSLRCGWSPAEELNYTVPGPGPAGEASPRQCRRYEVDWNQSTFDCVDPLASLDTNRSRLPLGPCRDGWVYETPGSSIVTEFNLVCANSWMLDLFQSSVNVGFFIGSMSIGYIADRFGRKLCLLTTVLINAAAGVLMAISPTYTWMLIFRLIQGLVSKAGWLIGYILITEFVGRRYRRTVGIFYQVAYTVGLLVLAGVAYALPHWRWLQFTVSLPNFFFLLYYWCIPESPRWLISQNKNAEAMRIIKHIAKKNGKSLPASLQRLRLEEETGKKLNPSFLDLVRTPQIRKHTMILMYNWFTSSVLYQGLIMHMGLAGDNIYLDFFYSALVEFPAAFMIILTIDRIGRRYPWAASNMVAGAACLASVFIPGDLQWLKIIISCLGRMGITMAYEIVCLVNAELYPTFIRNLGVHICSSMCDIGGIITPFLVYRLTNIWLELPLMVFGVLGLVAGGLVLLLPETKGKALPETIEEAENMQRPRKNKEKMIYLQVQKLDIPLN

As a reminder, the IC50 is the concentration that inhibits the measured activity by half. For `CN1CCN(CCOc2cc(OC3CCOCC3)c3c(Nc4c(Cl)ccc5c4OCO5)ncnc3c2)CC1` [saracatinib, N-(5-chloro-1,3-benzodioxol-4-yl)-7-[2-(4-methylpiperazin-1-yl)ethoxy]-5-(tetrahydro-2H-pyran-4-yloxy)quinazolin-4-amine], the results for the IC50 at OCT2 and against OCT1 were 0.46 µM and 27.1 µM, respectively.
